Experimental data as given in publication PMC7887271, “Fast acting allosteric phosphofructokinase inhibitors block trypanosome glycolysis and cure acute African trypanosomiasis in mice” (Nature Communications, 2021).
Values joined by “and” are separate entries in the source; they are usually repeats but may differ in a detail not shown here. Equal entries are not always repeated.

Tested on: T. b. brucei GVR35-Luc2
Assay: T. b. brucei GVR35-Luc2 time-to-kill assay (luciferin)
Assay type: cell-based
Conditions: for Luminescence (medium-subtracted), Average: average of replicates; for % Cell viability, individual replicates / % Inhibition, individual replicates / Luminescence (medium-subtracted), individual replicates: replicate wells; for Luminescence, Average / Luminescence, individual replicates: Time to kill assay for GVR35 cells
Protocol: Enzyme activity was measured using an aldolase/TIM linked assay at 25 °C. […] Experiments were carried out in duplicate. Data are presented as mean values ± standard deviation. […] Source data are provided as a Source Data File. b Kill time of CTCB-405 compared with existing HAT drugs in the clinic. […] Over 99% of trypanosomes were killed in under 30 min compared with much slower killing rates for the other drugs. The points on the graph for CTCB-405 were determined from two independent biological replicate experiments with each time point measured twice (using duplicate technical replicates). The ESD for each point on the graph is between 0.7 and 1.4%. For drugs in clinical use each point on the graph is the average of two technical replicates from one experiment (with a maximum difference of 7.8% for any of the points). Source data are provided as a Source Data File.
As predicted from the biology of the BSF that relies wholly on glycolysis for ATP production, inhibition of the pathway results in a very fast TTK. Two experimental methods were used to measure ATP levels as a real-time indicator of viability. For Tb427 parasites, a Cell Titre Glo kit was used and for the TbGVR35 bioluminescent strain, killing was assessed by adding luciferin which requires ATP to produce a luminescent signal (Supplementary Methods 4.3 and 4.4). […] The BSF of T. brucei cannot produce ATP by oxidative phosphorylation and is solely dependent on flux through the glycolytic pathway. The clear correlation between inhibitor dose and reduction in ATP production, as observed in the TTK assays strongly supports the proposed mode of action of the CTCB compounds is by blocking glycolysis. It is a long-established experimental observation that withdrawal of glucose nutrient leads to rapid loss of motility and cell death. It has recently been shown that the BSF of T. brucei can proliferate on high levels of glycerol; however, we have shown that addition of glycerol to the medium has little effect on parasite killing by the CTCB compounds (Supplementary Table 3).
The killing of T. b. brucei GVR35-Luc2 was assessed by adding D-luciferin to live cells resulting in the production of light in the presence of ATP and luciferase activity. Compounds of interest were serially diluted from 16 µM to 0.5 µM in Modified HMI-9 medium and added into sterile white, flat bottom 96-well plate (Greiner Inc.). 32,000 trypanosomes were added to each well. The plates were incubated at 37 °C and 5% CO2. At the end of each incubation, 200 µg/ml of D-luciferin was added to each well and incubated for 10 min. Luminescence was measured using a BMG plate reader and percentage cell viability versus incubation time was determined.

[1] = 0.5 h, mean, suramin, fexinidazole, SCYX-7158 11 µM, CTCB-405 4 µM
[2] = 1 h, mean, suramin, fexinidazole, SCYX-7158 11 µM, CTCB-405 4 µM
[3] = 8 h, mean, suramin, fexinidazole, SCYX-7158 11 µM, CTCB-405 4 µM
[4] = GVR35 TTK, 24 h incubation, average
[5] = GVR35 TTK, 24 h incubation, from average

CSc1ccc(OCc2ncc([N+](=O)[O-])n2C)cc1 [Fexinidazole, fexinidazole]
TTK (time-to-kill) value: > 20 h
% Cell viability, single replicates (0.5 h): 54% and 59%
% Inhibition, single replicates (0.5 h): 46% and 41%
% Cell viability (0.5 h, average): 57%
% Inhibition [1]: 43%
% Cell viability, single replicates (1 h): 46% and 57%
% Inhibition, single replicates (1 h): 54%
% Cell viability (1 h, average): 52%
% Inhibition [2]: 48%
% Cell viability, single replicates (2 h): 61%
% Inhibition, single replicates (2 h): 39%
% Cell viability (2 h, average): 57%
% Cell viability, single replicates (4 h): 58% and 63%
% Inhibition, single replicates (4 h): 42% and 37%
% Cell viability (4 h, average): 61%
% Cell viability, single replicates (6 h): 62% and 60%
% Inhibition, single replicates (6 h): 38% and 40%
% Cell viability (6 h, average): 61%
% Cell viability, single replicates (8 h): 55%
% Inhibition, single replicates (8 h): 45%
% Cell viability (8 h, average): 55%
% Inhibition [3]: 45%
% Cell viability, Average [4]: 18%
Luminescence (medium-subtracted), Average (GVR35 TTK, 24 h incubation): 18856.5
% Inhibition [5]: 83%
% Cell viability, individual replicates (GVR35 TTK, 24 h incubation): 16% and 19%
% Inhibition, individual replicates (GVR35 TTK, 24 h incubation): 84% and 81%
Luminescence (medium-subtracted), individual replicates (GVR35 TTK, 24 h incubation): 18923.5 and 18789.5
Luminescence, Average (0.5 hour incubation): 5213
Luminescence, individual replicates (0.5 hour incubation): 5083 and 5343
Luminescence, Average (1hour incubation): 6274
Luminescence, individual replicates (1hour incubation): 5678 and 6870
Luminescence, Average (2hour incubation): 8146
Luminescence, individual replicates (2hour incubation): 8389 and 7903
Luminescence, Average (4hour incubation): 11135
Luminescence, individual replicates (4hour incubation): 10890 and 11380
Luminescence, Average (6hour incubation): 20713
Luminescence, individual replicates (6hour incubation): 21007 and 20418
Luminescence, Average (8hour incubation): 17103
Luminescence, individual replicates (8hour incubation): 17279 and 16927
Luminescence, Average (24hour incubation): 18857
Luminescence, individual replicates (24hour incubation): 18924 and 18790

CC1(C)OB(O)c2cc(NC(=O)c3ccc(F)cc3C(F)(F)F)ccc21 [SCYX-7158]
% Cell viability, single replicates (0.5 h): 82% and 93%
% Inhibition, single replicates (0.5 h): 18% and 6.51%
% Cell viability (0.5 h, average): 88%
% Inhibition [1]: 12%
% Cell viability, single replicates (1 h): 78%
% Inhibition, single replicates (1 h): 22%
% Cell viability (1 h, average): 80%
% Inhibition [2]: 20%
% Cell viability, single replicates (2 h): 84% and 77%
% Inhibition, single replicates (2 h): 16% and 23%
% Cell viability (2 h, average): 80%
% Cell viability, single replicates (4 h): 53% and 55%
% Inhibition, single replicates (4 h): 47% and 45%
% Cell viability (4 h, average): 54%
% Inhibition (4 h, mean, suramin, fexinidazole, SCYX-7158 11 µM, CTCB-405 4 µM): 46%
% Cell viability, single replicates (6 h): 30% and 31%
% Inhibition, single replicates (6 h): 70% and 69%
% Cell viability (6 h, average): 31%
% Inhibition (6 h, mean, suramin, fexinidazole, SCYX-7158 11 µM, CTCB-405 4 µM): 69%
% Cell viability, single replicates (8 h): 16% and 15%
% Inhibition, single replicates (8 h): 84% and 85%
% Cell viability (8 h, average): 16%
% Inhibition [3]: 84%
% Cell viability, Average [4]: -0.0868%
Luminescence (medium-subtracted), Average (GVR35 TTK, 24 h incubation): 8.5
% Inhibition [5]: 100%
% Cell viability, individual replicates (GVR35 TTK, 24 h incubation): -0.0698% and -0.104%
% Inhibition, individual replicates (GVR35 TTK, 24 h incubation): 100%
Luminescence (medium-subtracted), individual replicates (GVR35 TTK, 24 h incubation): 16.5 and 0.5
% Cell viability (GVR35 TTK, 24 h sheet, summary line marked "4"): -0.085%
Luminescence, Average (0.5 hour incubation): 8054
Luminescence, individual replicates (0.5 hour incubation): 7697 and 8411
Luminescence, Average (1hour incubation): 9657
Luminescence, individual replicates (1hour incubation): 9531 and 9783
Luminescence, Average (2hour incubation): 11337
Luminescence, individual replicates (2hour incubation): 11424 and 11249
Luminescence, Average (4hour incubation): 9915
Luminescence, individual replicates (4hour incubation): 9827 and 10004
Luminescence, Average (6hour incubation): 10493
Luminescence, individual replicates (6hour incubation): 10240 and 10745
Luminescence, Average (8hour incubation): 4975
Luminescence, individual replicates (8hour incubation): 5108 and 4842
Luminescence, Average (24hour incubation): 8.5
Luminescence, individual replicates (24hour incubation): 17 and 0.5
